Columns and labels:
[1] = test system: Lactococcus lactis SB50; assay: Flask culture of Lactococcus lactis SB50, optical density; format: cell-based
Method: (§1) Sample Preparation • i) Flask culture: dissolution of the powders at 200 g/l then filtration of the supernatant and addition to the flasks. • ii) Bioreactor culture: direct addition to the reactors in a proportion of 1 g/l of powder before autoclaving.
Culture Conditions • i) Flask (100 ml, 0.5 and 11) culture:
(§2) The strain used is a strain of Lactococcus lactis SB50.
The tests were carried out overnight (16-18 h) at 30° C. with shaking at 180 rpm.
The composition of the culture medium for the strain is the following: glucose (1%), maltose (0.1%), yeast extract (2%) and minerals.
The culture conditions are the following: filling to 10% useful volume; a positive control with addition of hemin (hemoglobin of bovine origin) at 10 ppm final concentration is used.
(§3) The HEMARINA samples (powders in solution) were added post-sterilization after centrifugation. • ii) Bioreactor (11 useful volume) culture:
(§4) The optical density (OD) at 600 nm is measured for each culture.

[2] = test system: Lactococcus lactis SB50; assay: Bioreactor culture of Lactococcus lactis SB50 (OD, dry weight, NH4OH volume, viability); format: cell-based
Method: as §1, §2, §3
The tests were carried out overnight (15-16 h) at 30° C.
The composition of the culture medium for the strain is identical to that of the flasks, with an addition of 0.01% antifoam.
The culture conditions are the following: filling to 60% useful volume, pO2 regulated at 20% or 80% and pH regulated at 6.
1 g/l of powder are added directly to the culture medium before autoclaving.
as §4

[3] = overnight (15-16 h), 30° C., 1 g/l of powder

With hemin the active concentration ([1]; equivalent to that of hemin) was “approximately 0.25 ppm”, the “OD at 600 nm” value ([1]; overnight (16-18 h), 30° C., 180 rpm, hemin 10 ppm final concentration) was 4.5 and the Dry weight [2, 3] was 3.4 g/L. The Viability [2, 3] was 5.03E+09 CFU/ml, the “OD at 600 nm” value ([2]; overnight (15-16 h), 30° C., pH 6, 1 g/l of powder) was 10.9 and the “Volume NH4OH (corresponding to production of lactic acid)” value ([2]; pH regulated at 6, 1 g/l of powder) was 12.3 mL.

— US10988730B2, “Sand worm lyophilisate and uses thereof” (HEMARINA, priority 2013, dated 2021)
